Experimental data as given in ChEMBL document CHEMBL5360590, “Phyllospongianes A-E, Dinorscalarane Sesterterpenes from the Marine Sponge Phyllospongia foliascens” (J Nat Prod, 2023).
≈ marks a conversion by molar mass, not a printed value.

How the values were obtained:
[1] = test system: MDA-MB-231; experiment: Cytotoxicity against human MDA-MB-231 cells assessed as reduction in cell viability by CCK-8 assay; assay type: functional, cell-based
[2] = Cytotoxicity against human Enzalutamide-resistant LNCaP C4-2 cells assessed as reduction in cell viability by CCK-8 assay; assay type: functional, cell-based
[3] = test system: HepG2; experiment: Cytotoxicity against human HepG2 cells assessed as reduction in cell viability by CCK-8 assay; assay type: functional, cell-based
[4] = test system: Pseudomonas aeruginosa; experiment: Antibacterial activity against Pseudomonas aeruginosa assessed as bacterial growth inhibition; assay type: functional
[5] = test system: HT-29; experiment: Cytotoxicity against human HT-29 cells assessed as reduction in cell viability by CCK-8 assay; assay type: functional, cell-based
[6] = test system: MCF7; experiment: Cytotoxicity against human MCF7 cells assessed as reduction in cell viability by CCK-8 assay; assay type: functional, cell-based
[7] = test system: Vibrio vulnificus; experiment: Antibacterial activity against Vibrio vulnificus assessed as bacterial growth inhibition; assay type: functional
[8] = test system: Vibrio parahaemolyticus; experiment: Antibacterial activity against Vibrio parahaemolyticus assessed as bacterial growth inhibition; assay type: functional
[9] = test system: NCI-H460; experiment: Cytotoxicity against human NCI-H460 cells assessed as reduction in cell viability by CCK-8 assay; assay type: functional, cell-based
[10] = test system: Escherichia coli; experiment: Antibacterial activity against Escherichia coli assessed as bacterial growth inhibition; assay type: functional
[11] = test system: Enterococcus faecalis; experiment: Antibacterial activity against Enterococcus faecalis assessed as bacterial growth inhibition; assay type: functional
[12] = test system: Bacillus subtilis; experiment: Antibacterial activity against Bacillus subtilis assessed as bacterial growth inhibition; assay type: functional

| SMILES | MIC [4] | MIC [7] | MIC [10] | MIC [11] | MIC [12] | IC50 [1] | IC50 [2] | IC50 [3] | IC50 [5] | IC50 [6] | MIC [8] | IC50 [9] |
| --- | --- | --- | --- | --- | --- | --- | --- | --- | --- | --- | --- | --- |
| Cn1nnc2c(C(N)=O)ncn2c1=O [TEMOZOLOMIDE] | – | – | – | – | – | 14.4 µM | 18.2 µM | 5.9 µM | – | – | – | – |
| C[C@H]1COc2c(N3CCN(C)CC3)c(F)cc3c(=O)c(C(=O)O)cn1c23 [LEVOFLOXACIN ANHYDROUS] | 0.25 µg/mL (≈ 0.692 µM) | 0.5 µg/mL (≈ 1.38 µM) | 0.25 µg/mL (≈ 0.692 µM) | 0.25 µg/mL (≈ 0.692 µM) | 0.25 µg/mL (≈ 0.692 µM) | – | – | – | – | – | 0.5 µg/mL (≈ 1.38 µM) | – |
| CCCCC(=O)O[C@H]1C[C@@H]2[C@@]3(C)CCC[C@](C)(CC)[C@@H]3CC[C@@]2(C)[C@@H]2CC=C(C(=O)O)[C@@]12C | 32 µg/mL (≈ 69.8 µM) | 64 µg/mL (≈ 140 µM) | 32 µg/mL (≈ 69.8 µM) | 16 µg/mL (≈ 34.9 µM) | 16 µg/mL (≈ 34.9 µM) | > 50 µM | 11.2 µM | > 50 µM | 18 µM | 15.3 µM | 16 µg/mL (≈ 34.9 µM) | 13 µM |

More lines, main results first:

| MIC [4] | MIC [7] | MIC [10] | MIC [11] | MIC [12] | SMILES | IC50 [1] | IC50 [2] | IC50 [3] | IC50 [5] | IC50 [6] | MIC [8] | IC50 [9] |
| --- | --- | --- | --- | --- | --- | --- | --- | --- | --- | --- | --- | --- |
| 4 µg/mL (≈ 8.46 µM) | 4 µg/mL (≈ 8.46 µM) | 8 µg/mL (≈ 16.9 µM) | 4 µg/mL (≈ 8.46 µM) | 2 µg/mL (≈ 4.23 µM) | CC[C@@]1(C)CCC[C@]2(C)[C@H]3C[C@H](OC(=O)CCC(C)C)[C@]4(C)C(C(=O)O)=CC[C@H]4[C@]3(C)CC[C@@H]12 | > 50 µM | 3.7 µM | 20.1 µM | 13.2 µM | 12.3 µM | 2 µg/mL (≈ 4.23 µM) | 11 µM |
| 4 µg/mL (≈ 8.76 µM) | 2 µg/mL (≈ 4.38 µM) | 8 µg/mL (≈ 17.5 µM) | 4 µg/mL (≈ 8.76 µM) | 1 µg/mL (≈ 2.19 µM) | CC[C@@]1(C)CCC[C@]2(C)[C@H]3C[C@H](OC(=O)CCC(C)C)[C@]4(C)C(C=O)=CC[C@H]4[C@]3(C)CC[C@@H]12 | 32.3 µM | 1.7 µM | 19.3 µM | 4.7 µM | 3.5 µM | 2 µg/mL (≈ 4.38 µM) | 7.2 µM |
| > 64 µg/mL | > 64 µg/mL | > 64 µg/mL | > 64 µg/mL | 8 µg/mL (≈ 16.9 µM) | CC[C@@]1(C)CCC[C@]2(C)[C@H]3C[C@H](OC(=O)C[C@H](O)C(C)C)[C@]4(C)C(C=O)=CC[C@H]4[C@]3(C)CC[C@@H]12 | 13.2 µM | 0.7 µM | 9.6 µM | 1.2 µM | 1.1 µM | > 64 µg/mL | 2 µM |
| 4 µg/mL (≈ 9.04 µM) | 4 µg/mL (≈ 9.04 µM) | 8 µg/mL (≈ 18.1 µM) | 4 µg/mL (≈ 9.04 µM) | 2 µg/mL (≈ 4.52 µM) | CCCCC(=O)O[C@H]1C[C@@H]2[C@@]3(C)CCC[C@](C)(CC)[C@@H]3CC[C@@]2(C)[C@@H]2CC=C(C=O)[C@@]12C | > 50 µM | 5.7 µM | 32.1 µM | 8.7 µM | 7.3 µM | 4 µg/mL (≈ 9.04 µM) | 10.2 µM |
